Where a name gives a salt, the structure may show the parent alone.
System: production of IgE antibody
Assay: Evaluation of inhibitory effect on production of IgE antibody (mouse splenic B cells, LPS + IL-4, ELISA)
Assay type: cell-based
Conditions: B-cell, 168 h; test agent 10^−6 M; mouse (Balb/C) B cells cultured with LPS then mouse IL-4 for 7 days; IgE in culture supernatant by ELISA
Protocol: A spleen was enucleated from a mouse (Balb/C, male, aged 8 weeks) and shredded in 0.3% BSA/HBSS to prepare single cells by means of a 200-mesh screen. Further, the single cells were hemolyzed by 0.75% ammonium chloride-17 mM Tris solution to prepare a splenocyte suspension (1×10^7/ml) using RPMI 1640 medium/25 mM HEPES/0.3% BSA. After the suspension was reacted with a rat anti-mouse Thy-1,2 monoclonal antibody (product of Cedarlane Co.) at 4° C. for 1 hour, the reaction mixture was centrifuged, and the sediment cells were suspended again (1×10^7/ml, RPMI/HEPES/BSA). After the suspension was then reacted with a low-cytotoxic rabbit complement (product of Cedarlane Co.) at 37° C. for 1 hour, killed cells were removed by specific gravity centrifugation using lympholyte M (product of Cedarlane Co.) to obtain a B cell fraction as viable cells.
After B cells (10^5/0.2 ml/well) were cultured for a day together with LPS (E. coli 026:B6, product of DIFCO Co.) using a 96-well plate, mouse IL-4 (product of Genzyme Co.) was added to conduct culture further for 7 days.
Each test agent was added on the first day of the culture, and the amount of IgE in a culture supernatant was measured by ELISA after the culture, thereby calculating out the inhibitory effect of the agent on the production of an IgE antibody.

Row | Structure (SMILES) | inhibition at 1 µM [%]
1 | COc1cc(/C=C/C=C/C(=O)N2CCN(CCCN3CCN(C(=O)/C=C/C=C/c4cc(OC)c(OC)c(OC)c4)CC3)CC2)cc(OC)c1OC [Example 3, 1,3-bis[4-[(E,E)-5-(3,4,5-Trimethoxyphenyl)-2,4-pentadienoyl]-1-piperazinyl]propane Dihydrochloride] | 100
2 | COc1cc(-c2ccc(C(=O)N3CCCN(CCCN4CCCN(C(=O)c5ccc(-c6cc(OC)c(OC)c(OC)c6)cc5)CC4)CC3)cc2)cc(OC)c1OC [Example 23, 1,1′-Trimethylenedi[4-[4-(3,4,5-trimethoxyphenyl)benzoyl]hexahydro-1,4-diazepine]dihydrochloride] | 85
3 | COc1ccc(C(=O)N2CCC(CN3CCN(CC4CCN(C(=O)c5ccc(OC)c(-c6cc(OC)c(OC)c(OC)c6)c5)CC4)CC3)CC2)cc1-c1cc(OC)c(OC)c(OC)c1 [Example 40, 1,4-bis[[1-[4-Methoxy-3-(3,4,5-trimethoxyphenyl)benzoyl]-4-piperidinyl]methyl]piperazine Dihydrochloride] | 75
4 | CSc1ncccc1/C=C/C=C/C(=O)N1CCN(CCCCCCCCN2CCN(C(=O)/C=C/C=C/c3cccnc3SC)CC2)CC1 [Example 13, 1,8-bis[4-[(E,E)-5-(2-Methylthio-3-pyridyl)-2,4-pentadienoyl]-1-piperazinyl]octane Dihydrochloride] | 95
5 | COc1cc(C#C/C=C/C(=O)N2CCN(CCCN3CCN(C(=O)/C=C/C#Cc4cc(OC)c(OC)c(OC)c4)CC3)CC2)cc(OC)c1OC [Example 6, 1,3-bis[4-[(E)-5-(3,4,5-Trimethoxyphenyl)-2-penten-4-ynoyl]-1-piperazinyl]propane Dihydrochloride] | 95
6 | COc1cc(C#C/C=C/C(=O)N2CCC(CC(CC3CCN(C(=O)/C=C/C#Cc4cc(OC)c(OC)c(OC)c4)CC3)CN(C)C)CC2)cc(OC)c1OC [Example 33, 1,3-bis[1-[(E)-5-(3,4,5-Trimethoxyphenyl)-2-penten-4-ynoyl]-4-piperidinyl]-2-[(dimethylamino)methyl]propane Hydrochloride] | 100
7 | COc1cc(-c2cc(C(=O)N3CCC(CC(CC4CCN(C(=O)c5ccc(C)c(-c6cc(OC)c(OC)c(OC)c6)c5)CC4)N(C)C)CC3)ccc2C)cc(OC)c1OC [Example 30, 1,3-bis[1-[4-Methyl-3-(3,4,5-trimethoxyphenyl)benzoyl]-4-piperidinyl]-2-(dimethylamino)propane Hydrochloride] | 100
8 | COc1cc2ccc(/C=C/C(=O)N3CCC(CN(C)CC4CCN(C(=O)/C=C/c5ccc6cc(OC)c(OC)c(OC)c6c5)CC4)CC3)cc2c(OC)c1OC [Example 36, N,N-bis[[1-[(E)-3-(6,7,8-Trimethoxy-2-naphthyl)-2-propenoyl]-4-piperidinyl]methyl]methylamine Hydrochloride] | 60
9 | O=C(/C=C/c1ccc2ccccc2c1)N1CCN(Cc2cccc(CN3CCN(C(=O)/C=C/c4ccc5ccccc5c4)CC3)n2)CC1 [Example 20, 2,6-bis[[4-[(E)-3-(2-Naphthyl)-2-propenoyl]-1-piperazinyl]methyl]pyridine] | 75
10 | COc1cc2c(cc1OC)C(C)(C)C(/C=C/C(=O)N1CCC(CCCC3CCN(C(=O)/C=C/C4=Cc5cc(OC)c(OC)cc5C4(C)C)CC3)CC1)=C2 [Example 27, 1,3-bis[1-[(E)-3-(5,6-Dimethoxy-1,1-dimethyl-2-indenyl)-2-propenoyl]-4-piperidinyl]propane] | 100
11 | COc1cc(-c2ccc(C(=O)N3CCC(N(C)CCN(C)C4CCN(C(=O)c5ccc(-c6cc(OC)c(OC)c(OC)c6)cc5)CC4)CC3)cc2)cc(OC)c1OC [Example 37, N,N′-bis[1-[4-(3,4,5-Trimethoxyphenyl)benzoyl]-4-piperidinyl]-N,N′-dimethylethylenediamine Dihydrochloride] | 100
12 | CC(C)(C)c1ccc(/C=C/C=C/C(=O)N2CCN(CCCCCCCCN3CCN(C(=O)/C=C/C=C/c4ccc(C(C)(C)C)cc4)CC3)CC2)cc1 [Example 12, 1,8-bis[4-[(E,E)-5-(4-tert-Butylphenyl)-2,4-pentadienoyl]-1-piperazinyl]octane Dihydrochloride] | 90
13 | COc1cc(-c2ccc(C(=O)N3CCN(Cc4ccc(CN5CCN(C(=O)c6ccc(-c7cc(OC)c(OC)c(OC)c7)cc6)CC5)cc4)CC3)cc2)cc(OC)c1OC [Example 16, 1,4-bis[[4-[4-(3,4,5-Trimethoxyphenyl)benzoyl]-1-piperazinyl]methyl]benzene Dihydrochloride] | 65
14 | COc1cc(-c2ccc(C(=O)N3CCN(CCCN4CCN(C(=O)c5ccc(-c6cc(OC)c(OC)c(OC)c6)cc5)CC4)CC3)cc2)cc(OC)c1OC [Example 5, 1,3-bis[4-[4-(3,4,5-Trimethoxyphenyl)-benzoyl]-1-piperazinyl]propane Dihydrochloride] | 95

— patent publication US6645957B2, “Cyclic amide compound” (Kowa Co., Ltd., priority 1998, dated 2003)
